The text below walks through data of ChEMBL document CHEMBL1158238, “New prenylflavones from the leaves of Epimedium saggitatum” (J Nat Prod, 1996).

The subject of the test is Platelet. The test is described as follows: Inhibition of arachidonic acid-induced platelets aggregation by turbidimetry. The class given is functional, cell-based.

Molecules are shown by their SMILES.

As a reminder, the IC50 is the concentration that inhibits the measured activity by half. The molecule `C=C(C)C(O)Cc1cc(-c2cc(=O)c3c(O)cc(O)cc3o2)cc2c1OC(C)(C)C=C2` (configuration not stated) [YINYANGHUO A] registered an IC50 of 7.14 µM.
The value for `C=C(C)C(O)Cc1cc(-c2cc(=O)c3c(O)cc(O)cc3o2)cc(CC=C(C)C)c1O` (configuration not stated) [YINYANGHUO B] was 1.67 µM.
